# ChEMBL document CHEMBL1146702, “Synthesis and nicotinic receptor activity of a hydroxylated tropane” (Bioorg Med Chem Lett, 2004)
# Assays:
# [1] = biological target: Neuronal acetylcholine receptor; alpha2/beta4 (Homo sapiens, UniProt P30926+Q15822); test: Binding affinity against nicotinic acetylcholine receptor alpha2-beta4 using [3H]epibatidine as radioligand expressed in HEK293 cells or tsA cells; type: cell-based
# [2] = biological target: T1, Neuronal acetylcholine receptor; alpha3/beta4 (Homo sapiens, UniProt P30926+P32297); test: Binding affinity against nicotinic acetylcholine receptor alpha3-beta4 using [3H]epibatidine as radioligand expressed in HEK293 cells or tsA cells; type: cell-based
# T1 sequence (P30926 whole entry): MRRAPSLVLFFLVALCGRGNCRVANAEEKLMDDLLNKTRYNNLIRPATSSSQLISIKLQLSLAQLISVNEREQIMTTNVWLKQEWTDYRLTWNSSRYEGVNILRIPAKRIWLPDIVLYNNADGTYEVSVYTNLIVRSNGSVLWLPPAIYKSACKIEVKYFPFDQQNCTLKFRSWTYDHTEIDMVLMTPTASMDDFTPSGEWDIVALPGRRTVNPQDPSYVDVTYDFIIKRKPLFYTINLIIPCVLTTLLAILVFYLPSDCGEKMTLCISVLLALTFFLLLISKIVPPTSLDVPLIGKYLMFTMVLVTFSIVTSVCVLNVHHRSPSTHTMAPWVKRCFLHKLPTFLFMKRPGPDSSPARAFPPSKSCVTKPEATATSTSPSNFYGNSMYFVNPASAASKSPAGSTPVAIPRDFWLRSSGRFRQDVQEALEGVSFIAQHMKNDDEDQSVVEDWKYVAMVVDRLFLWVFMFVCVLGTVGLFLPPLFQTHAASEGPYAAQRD
# T1 sequence (P32297 whole entry): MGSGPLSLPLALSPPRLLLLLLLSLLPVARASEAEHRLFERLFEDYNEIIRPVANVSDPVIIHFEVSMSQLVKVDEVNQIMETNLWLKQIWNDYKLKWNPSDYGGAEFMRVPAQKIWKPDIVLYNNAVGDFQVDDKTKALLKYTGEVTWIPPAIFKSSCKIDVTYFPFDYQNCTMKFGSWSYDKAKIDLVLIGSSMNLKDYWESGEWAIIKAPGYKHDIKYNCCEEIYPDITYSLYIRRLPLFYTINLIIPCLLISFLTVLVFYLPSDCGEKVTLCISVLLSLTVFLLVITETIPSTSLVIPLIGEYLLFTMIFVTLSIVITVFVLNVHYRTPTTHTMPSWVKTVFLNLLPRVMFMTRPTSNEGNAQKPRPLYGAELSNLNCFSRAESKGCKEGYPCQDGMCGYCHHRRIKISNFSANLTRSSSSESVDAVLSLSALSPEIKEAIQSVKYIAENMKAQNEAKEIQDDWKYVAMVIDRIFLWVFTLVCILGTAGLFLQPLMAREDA
# [3] = biological target: Neuronal acetylcholine receptor; alpha4/beta4 (Homo sapiens, UniProt P30926+P43681); test: Binding affinity against nicotinic acetylcholine receptor alpha4-beta4 using [3H]epibatidine as radioligand expressed in HEK293 cells or tsA cells; type: cell-based
# Neuronal acetylcholine receptor; alpha4/beta4, sequence (P30926 whole entry): as the sequence (P30926 whole entry) above
# Neuronal acetylcholine receptor; alpha4/beta4, sequence (P43681 whole entry): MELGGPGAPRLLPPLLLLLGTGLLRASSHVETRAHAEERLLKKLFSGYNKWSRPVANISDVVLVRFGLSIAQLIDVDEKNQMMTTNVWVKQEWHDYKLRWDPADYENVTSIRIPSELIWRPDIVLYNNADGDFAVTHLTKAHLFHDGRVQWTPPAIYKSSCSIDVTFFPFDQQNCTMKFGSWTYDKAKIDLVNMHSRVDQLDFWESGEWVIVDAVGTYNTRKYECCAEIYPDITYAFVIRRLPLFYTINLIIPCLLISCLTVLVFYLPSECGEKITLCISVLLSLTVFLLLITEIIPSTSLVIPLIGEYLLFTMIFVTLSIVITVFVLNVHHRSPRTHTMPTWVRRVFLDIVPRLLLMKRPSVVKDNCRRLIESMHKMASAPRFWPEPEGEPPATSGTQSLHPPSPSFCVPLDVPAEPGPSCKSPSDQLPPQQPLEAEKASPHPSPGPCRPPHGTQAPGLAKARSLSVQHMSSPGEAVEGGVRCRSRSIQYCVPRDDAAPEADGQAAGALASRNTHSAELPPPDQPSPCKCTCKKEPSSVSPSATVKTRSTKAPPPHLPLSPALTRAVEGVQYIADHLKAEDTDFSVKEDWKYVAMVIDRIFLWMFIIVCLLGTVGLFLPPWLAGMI
# [4] = biological target: Neuronal acetylcholine receptor; test: Binding affinity against nicotinic acetylcholine receptor using [3H]epibatidine as radioligand in rat brain tissue; type: tissue-based
# [5] = biological target: T1, Neuronal acetylcholine receptor; alpha3/beta4; test: Agonistic potency against nicotinic acetylcholine receptor alpha3-beta4; type: functional
# [6] = biological target: Neuronal acetylcholine receptor; alpha4/beta2 (Homo sapiens, UniProt P17787+P43681); test: Binding affinity against nicotinic acetylcholine receptor alpha4-beta2 using [3H]epibatidine as radioligand expressed in HEK293 cells or tsA cells; type: cell-based
# Neuronal acetylcholine receptor; alpha4/beta2, sequence (P17787 whole entry): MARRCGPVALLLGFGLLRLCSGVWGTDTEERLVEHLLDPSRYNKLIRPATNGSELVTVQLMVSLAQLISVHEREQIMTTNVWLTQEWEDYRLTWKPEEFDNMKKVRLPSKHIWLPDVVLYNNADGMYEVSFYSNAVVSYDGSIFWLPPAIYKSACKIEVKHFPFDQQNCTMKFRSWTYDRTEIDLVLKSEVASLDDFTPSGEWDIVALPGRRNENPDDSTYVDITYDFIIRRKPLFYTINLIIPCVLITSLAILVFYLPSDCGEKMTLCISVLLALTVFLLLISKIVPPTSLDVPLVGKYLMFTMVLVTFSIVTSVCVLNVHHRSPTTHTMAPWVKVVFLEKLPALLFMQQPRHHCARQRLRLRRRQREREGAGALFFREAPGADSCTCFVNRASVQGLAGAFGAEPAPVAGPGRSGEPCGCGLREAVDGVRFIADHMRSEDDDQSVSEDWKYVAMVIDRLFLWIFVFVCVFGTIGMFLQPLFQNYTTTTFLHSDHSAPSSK
# Neuronal acetylcholine receptor; alpha4/beta2, sequence (P43681 whole entry): as the sequence (P43681 whole entry) above
# Neuronal acetylcholine receptor; alpha2/beta4, sequence (P30926 whole entry): as the sequence (P30926 whole entry) above
# Neuronal acetylcholine receptor; alpha2/beta4, sequence (Q15822 whole entry): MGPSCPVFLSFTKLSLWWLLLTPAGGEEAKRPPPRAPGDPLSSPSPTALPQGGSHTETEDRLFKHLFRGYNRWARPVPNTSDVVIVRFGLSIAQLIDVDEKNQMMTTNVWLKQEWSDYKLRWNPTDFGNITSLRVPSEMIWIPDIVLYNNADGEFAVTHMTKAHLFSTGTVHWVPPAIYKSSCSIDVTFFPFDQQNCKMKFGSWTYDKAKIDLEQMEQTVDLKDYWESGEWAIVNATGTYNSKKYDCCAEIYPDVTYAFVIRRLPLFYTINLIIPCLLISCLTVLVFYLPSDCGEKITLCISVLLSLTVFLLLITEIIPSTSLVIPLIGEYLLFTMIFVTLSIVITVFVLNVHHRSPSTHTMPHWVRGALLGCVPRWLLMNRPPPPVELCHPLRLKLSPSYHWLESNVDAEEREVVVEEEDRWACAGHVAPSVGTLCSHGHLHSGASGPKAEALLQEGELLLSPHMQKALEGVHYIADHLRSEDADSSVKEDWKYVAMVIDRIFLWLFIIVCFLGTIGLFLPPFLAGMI
Structure (SMILES),Ki [1] [nM],Ki [2] [nM],Ki [3] [nM],Ki [4] [nM],EC50 [5] [nM],Ki [6] [nM]
CN1CCC[C@H]1c1cccnc1 [NICOTINE],103,,,,,
Clc1ccc(C2CC3CCC2N3)cn1 (stereo not drawn) [EPIBATIDINE],0.091,,,,,
OC1CC2CC(c3ccc(Cl)nc3)C(C1)N2 (stereo not drawn),31,88,38,18,2100,7.4
